Data set [1] deals with EGFR phosphorylation in Ba/F3-EGFR^L858R/T790M/C797S engineered cells. Kind of data set: Cell phosphorylation inhibition effect (pEGFR ELISA). Particulars: for IC50: Mus musculus, Ba/F3 EGFR-L858R, EGF stimulated, ELISA pY1068, read-out: Cellular pEGFR Inhibition IC50 (nM) Ba/F3-EGFR^L858R/T790M/C797S; for inhibitory effect on EGFR phosphorylation (in words): Ba/F3-EGFR^L858R/T790M/C797S engineered cells. In kind it is cell-based, human. The protocol: Cell line: BaF3 cells with stable overexpression of EGFR^T790M/C797S/L858R mutant genes, named BaF3-EGFR^T790M/C797S/L858R cells.
(§1) a) The medium was preheated in a 37° C. water bath.
(§2) b) The cryopreservation tube was taken from the liquid nitrogen tank, quickly placed in a 37° C. water bath, and melted completely within 1 minute.
(§3) c) The cell suspension was transferred to a 15 mL centrifuge tube containing a 10 mL medium and centrifuged at 1000 rpm for 4 minutes.
(§4) d) The supernatant was discarded, the cells were resuspended in a 1 mL medium and transferred to a […] culture dish containing a 10 mL medium, 20% serum and 50 ng/mL EGF were administered to the first-generation medium, and culture was conducted in a 37° C. and 5% CO2 incubator.
(§5) b) The cells in the culture dish were blown evenly with a 5 mL pipette, and 500 μL of the cells were pipetted out to be inoculated into a new […] culture dish and cultured in a 37° C. and 5% CO2 incubator.
(§6) a) The compound to be tested (10 mM stock solution) was diluted with 100% DMSO to 1 mM, and diluted with a culture solution in a 24-well plate to prepare of a working solution of 2 μM concentration.
(§7) b) The 2 μM working solution was diluted with a triple dilution method to obtain working solutions with approximate concentrations of 2 μM, 600 nM, 200 nM, 60 nM, and 20 nM.
a) The cells at the logarithmic growth phase were centrifuged at 1000 rpm for 4 minutes, resuspended with a medium (containing 10% serum), and counted.
b) The cells were inoculated into a 24-well plate with a cell density of 2 million cells/well, and placed in a 37° C. and 5% CO2 incubator for stabilization overnight.
a) The prepared compound was added to a 96-well plate, with 100 μL per well. The final concentrations were 1 μM, 300 nM, 100 nM, 30 nM, 10 nM, and 0 nM, and the final concentration of DMSO was 0.2%. A medium and 0.2% DMSO served as a blank control.
b) 100 ng/mL EGF was added at 1 hour and 45 minutes of administration. After 15 minutes of EGF treatment, the cells were collected and centrifuged to obtain the supernatant.
(5) Detection of Intracellular pEGFR Content
The content of EGFR and pEGFR in the supernatant was determined using an ELISA kit (Abcam, ab126439-EGFR (pY1068)+total EGFR Human ELISA).
(§8) The data was analyzed using GraphPad Prism 8.0 software to obtain a fitted curve of activity of the compounds. The IC50 of the compounds was fitted from nonlinear regression equation.

The subject of a further data set is BaF3-EGFR^WT cells. In words: BaF3 cell proliferation inhibition experiment (CCK-8). In kind it is cell-based. The following applies: Mus musculus, read-out: BaF3-EGFR^WT (IC50 nM). Here is the method: (§9) A. Cell line: BaF3 cells with stable overexpression of wild-type genes are named BaF3-EGFR^WT, and BaF3 cells with stable overexpression of EGFR^L858R/T790M/C797S EGFR^del19/T790M/C797S EGFR^L858R/C797S and EGFR^del19/C797S mutant genes are named BaF3-EGFR^L858R/T790M/C797S BaF3-EGFR^del19/T790M/C797S BaF3-EGFR^L858R/C797S and BaF3-EGFR^del19/C797S cells, respectively. Mediums:
as §1, §2, §3, §4, §5, §6, §7
(§10) a) The cells at the logarithmic growth phase were centrifuged at 1000 rpm for 4 minutes, resuspended with a medium (containing 10% serum and 50 ng/mL EGF), and counted.
(§11) b) The cells were inoculated into a 96-well plate with a cell density of 4000 cells/well, and placed in a 37° C. and 5% CO2 incubator for culture for 12 hours.
(§12) a) The prepared compound was added to a 96-well plate, with 100 μL per well. The final concentrations were 1 μM, 300 nM, 100 nM, 30 nM, 10 nM, and 0 nM, and the final concentration of DMSO was 0.2%. A medium served as a blank control.
(§13) b) The cells were placed in 37° C. and 5% CO2 incubator for culture for 72 hours.
(§14) (5) Cell Viability Testing
(§15) a) The 96-well cell culture plate was taken out, and 20 μL of a CCK-8 reagent (Cell Counting Kit-8, Topscience, Catalog No. C0005) was added in the dark.
(§16) b) Mixing well was conducted on a horizontal shaking table at a room temperature at 100 rpm for 5 minutes.
(§17) c) The culture plate was placed in a 37° C. constant-temperature incubator for incubation.
as §8

Data set [2] relates to BaF3-EGFR^del19/T790M/C797S cells. Described as above. Format: cell-based. Particulars: Ba/F3 EGFR-Del19/T790M/C797S, read-out: BaF3-EGFR^del19 /T790M/C797S (IC50 nM). The protocol: as §9, §1, §2, §3, §4, §5, §6, §7, §10, §11, §12, §13, §14, §15, §16, §17, §8
A short description of data set [3]: Detection of oral plasma exposure in rats. In kind it is in vivo. Particulars: rat, SD rats, p.o. 10 mg/kg. Here is the method: Detection of oral plasma exposure in rats: The compounds of the present invention have good oral in-vivo exposure in rats
After a single dose of 10 mg/kg oral administration of the compound to be tested in SD rats, blood samples were collected at different time points.
Standard curve and quality control sample preparation processing: The mixed reserve solution of the compound to be tested was taken and diluted with 50% methanol water into standard working solutions containing respective compounds with concentrations of 20, 40, 100, 200, 400, 1000, 2000, 4000, 10000, and 20000 ng/mL, as well as 60, 600, and 16000 ng/mL quality control working solutions. […] of a blank matrix was taken. […] of the standard curve working solutions and the quality control working solutions were added to prepare standard curves containing respective compounds with concentrations of 1.00, 2.00, 5.00, 10.00, 20.00, 50.00, 100.00, 200.00, 500.00, and 1000.00 ng/mL, as well as quality control samples with concentrations of 3.00, 30.00, and 800.00 ng/mL, respectively. 400 μL of acetonitrile (containing internal standard Verpmil of 2 ng/mL) was added. After vortex oscillation at 700 rcf for 10 minutes, centrifugation was conducted at 3300 rcf at 4° C. for 10 minutes. The supernatant was taken for LC-MS/MS analysis.
Unknown sample preparation processing: 50 μL of the sample to be tested was taken. 400 μL of acetonitrile (containing internal standard Verpmil of 2 ng/mL) was added. After vortex oscillation at 700 rcf for 10 minutes, centrifugation was conducted at 3300 rcf and 4° C. for 10 minutes. The supernatant was taken for LC-MS/MS analysis.

Broadly, the AUC(0-t) is exposure summed from dosing to a finite time, without extrapolation to infinity. The term Cmax denotes the highest concentration seen after dosing. What is called Tmax is the time at which the peak concentration occurs. The term half-life denotes how long it takes for the measured level to halve. A high value points to slow decline.

Like-named read-outs stand apart in the source and are kept apart here.

For the compound `CCc1cc(Nc2ncc(Cl)c(Nc3ccc(C)c(C)c3P(C)(C)=O)n2)c(OC)cc1N1CCC(N2CCN(C)CC2)CC1` [Comparative Compound A, reference compound], the IC50 came to 405 nM in data set [1]; 1570 nM in the data set with BaF3-EGFR^WT cells (BaF3, cell proliferation, 72 hours); 66.3 nM in data set [2] (cell proliferation, 72 hours).

For `CCc1cc(Nc2ncc(Cl)c(Nc3ccc(C)c(C)c3P(C)(C)=O)n2)c(OC)cc1N1CC2(CCN(C)CC2)C1` [Compound 24, (6-((5-Chloro-2-((5-ethyl-2-methoxy-4-(7-methyl-2,7-diazaspiro[3.5]non-2-yl)phenyl)amino)pyrimidin-4-yl)amino)-2,3-dimethylphenyl)dimethylphosphine oxide], in data set [1], the “inhibitory effect on EGFR phosphorylation (in words)” value is listed as “good inhibitory effect” and the IC50 was 150 nM. The IC50 in the data set with BaF3-EGFR^WT cells (BaF3, 72 h) amounted to 5770 nM. The IC50 in data set [2] (72 h) was determined as 128 nM. In data set [3], the AUC(0-t) is 7870 ng·h/mL, the Cmax is 505 ng/mL, the Tmax amounted to 9 h and the half-life is 9.48 h.

With `CCc1cc(Nc2ncc(Cl)c(Nc3ccc(C)c(C)c3P(C)(C)=O)n2)c(OC)cc1N1CCC(N2C[C@H]3CC[C@@H](C2)N3C)CC1` [Compound 51, (6-((5-chloro-2-((5-ethyl-2-methoxy-4-(4-((1R,5S)-8-methyl-3,8-diazabicyclo[3.2.1]octan-3-yl)piperidin-1-yl)phenyl)amino)pyrimidin-4-yl)amino)-2,3-dimethylphenyl)dimethylphosphine oxide], in data set [1], the “inhibitory effect on EGFR phosphorylation (in words)” value was “good inhibitory effect” and the IC50 was found to be 132 nM. Also, the IC50 in the data set with BaF3-EGFR^WT cells (BaF3, 72 h) worked out at 1180 nM. For the same compound, the IC50 in data set [2] (72 h) was found to be 29.9 nM. In addition, in data set [3], the AUC(0-t) was determined as 20700 ng·h/mL, the Cmax came to 1220 ng/mL, the Tmax is 4 h and the half-life was 9.47 h.

Regarding `CCc1cc(Nc2ncc(Cl)c(Nc3ccc(C)c(C)c3P(C)(C)=O)n2)c(OC)cc1N1CCC2(CC1)CC(N(C)C)C2` [Compound 6, (6-((5-chloro-2-((4-(2-(dimethylamino)-7-azaspiro[3.5]nonan-7-yl)-5-ethyl-2-methoxyphenyl)amino)pyrimidin-4-yl)amino)-2,3-dimethylphenyl)dimethylphosphine oxide], in data set [3], the AUC(0-t) worked out at 13800 ng·h/mL, the Cmax is 866 ng/mL, the Tmax is 8 h and the half-life was 9.72 h. In addition, the AUC(0-inf) in data set [3] (read-out: AUCINF—obs) came out at 17700 ng·h/mL.

The values above are taken from patent US20250101052A1, “COMPOUND FOR EGFR KINASE INHIBITOR, COMPOSITION, AND USE THEREOF” (INNOVATION INSTITUTE FOR ARTIFICIAL INTELLIGENCE IN …, priority 2021, published 2025).
